Test results taken from patent US8987445B2, “Sulfonamide compounds having TRPM8 antagonistic activity” (Mitsubishi Tanabe Pharma Corporation, priority 2011, dated 2015).

Target: human TRPM8 (Homo sapiens (Human), UniProt Q7Z2W7)
Assay: TRPM8 inhibition assay (menthol-induced calcium influx, FDSS)
Assay type: cell-based
Details: HEK293 cells stably expressing human TRPM8; 100 μM menthol; Fura-2AM Ca2+ signal; read-out: TRPM8 Blocking Test (IC50)
Experimental: The functional activity of compounds was determined by measuring changes in intracellular calcium concentration using a Ca^2+ sensitive fluorescent dye. The changes in fluorescent signal were monitored by the cell imaging technology by Hamamatsu Photonics's Functional Drug Screening System (FDSS). […] HEK293 cells stably expressing human TRPM8 were grown in flasks. On assay day, the culture medium was removed, and cells were washed with phosphate-buffered saline (PBS) and harvested with PBS containing 2 mM ethylenediaminetetraacetic acid, disodium salt (EDTA, 2Na). […] Subsequently, suspended 20,000 to 50,000 cells per well were incubated with test compound (at varying concentrations) in each well for 20 min at 37° C. Changes in intracellular Ca^2+ evoked by 100 μM menthol were measured for 2 min using FDSS. IC50 vales were determined from four-point concentration-response studies. Curves were generated using the average of quadruplicate wells for each data point.

Sequence of human TRPM8 (Q7Z2W7 whole entry): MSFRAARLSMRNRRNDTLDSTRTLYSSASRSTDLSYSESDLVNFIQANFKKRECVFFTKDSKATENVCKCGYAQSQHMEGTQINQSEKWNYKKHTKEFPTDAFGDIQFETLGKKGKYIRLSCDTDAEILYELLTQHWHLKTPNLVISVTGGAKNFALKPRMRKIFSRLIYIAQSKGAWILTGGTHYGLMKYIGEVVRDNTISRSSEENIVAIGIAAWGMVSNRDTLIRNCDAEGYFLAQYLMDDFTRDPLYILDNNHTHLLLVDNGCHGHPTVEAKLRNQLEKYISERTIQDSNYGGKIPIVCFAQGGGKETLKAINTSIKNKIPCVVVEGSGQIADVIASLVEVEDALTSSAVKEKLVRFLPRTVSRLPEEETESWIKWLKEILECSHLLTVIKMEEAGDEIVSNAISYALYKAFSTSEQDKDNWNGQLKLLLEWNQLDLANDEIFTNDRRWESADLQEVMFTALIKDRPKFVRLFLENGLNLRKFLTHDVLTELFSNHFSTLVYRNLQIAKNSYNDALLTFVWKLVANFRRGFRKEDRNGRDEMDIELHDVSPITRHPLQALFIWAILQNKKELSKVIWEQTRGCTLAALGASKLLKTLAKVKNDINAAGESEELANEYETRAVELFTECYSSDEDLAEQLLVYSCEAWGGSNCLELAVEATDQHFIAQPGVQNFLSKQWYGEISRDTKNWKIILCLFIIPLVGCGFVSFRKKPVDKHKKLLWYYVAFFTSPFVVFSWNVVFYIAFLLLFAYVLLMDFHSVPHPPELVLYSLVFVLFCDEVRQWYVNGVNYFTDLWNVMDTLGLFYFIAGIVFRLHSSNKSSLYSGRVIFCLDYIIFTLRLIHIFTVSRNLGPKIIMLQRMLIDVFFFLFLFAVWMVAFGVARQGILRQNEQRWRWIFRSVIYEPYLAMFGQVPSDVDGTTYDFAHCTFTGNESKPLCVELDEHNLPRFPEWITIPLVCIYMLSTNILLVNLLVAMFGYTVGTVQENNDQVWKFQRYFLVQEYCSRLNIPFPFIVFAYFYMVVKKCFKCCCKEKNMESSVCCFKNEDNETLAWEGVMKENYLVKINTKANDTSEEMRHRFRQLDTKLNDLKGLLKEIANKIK

Row | Structure (SMILES) | IC50
1 | CC(C)c1nc(N(Cc2ccc(OC(F)(F)F)cc2)S(=O)(=O)c2ccc(C(=O)O)cc2)c(C2CC2)c2ccccc12 [Example 231] | 6.9 nM
2 | Cc1c(N(Cc2ccc(CC3CC3)cc2)S(=O)(=O)c2ccc(C(=O)O)cc2)ncc2ccccc12 [Example 24] | 4.6 nM
3 | Cc1c(N(CC2CCN(c3ccccc3)CC2)S(=O)(=O)c2ccc(C(=O)O)cc2)ncc2ccccc12 [Example 85] | 79 nM
4 | Cc1c(N(Cc2ccc(OC(F)(F)F)cc2)S(=O)(=O)c2ccc(C(=O)O)cc2)nc(-c2cccnc2)c2ccccc12 [Example 213] | 116 nM
5 | Cc1c(N(Cc2ccc(OC(F)(F)F)cc2)S(=O)(=O)c2ccc(C(=O)NC#N)cc2)ncc2ccccc12 [Example 239] | 14 nM
6 | O=C(O)c1ccc(S(=O)(=O)N(Cc2ccc(OC(F)(F)F)cc2)c2cc3c(Cl)cccc3cn2)cc1 [Example 102, 4-({(5-chloroisoquinolin-3-yl)[4-(trifluoromethoxy)benzyl]amino}sulfonyl)benzoic acid] | 115 nM
7 | Cc1c(N(Cc2ccc3c(c2)CCC3)S(=O)(=O)c2ccc(C(=O)O)cc2)ncc2ccccc12 [Example 60] | 8.1 nM
8 | COc1nc(N(Cc2ccc(OC(F)(F)F)cc2)S(=O)(=O)c2ccc(C(=O)O)cc2)c(C)c2cccc(C)c12 [Example 229] | 44 nM
9 | Cc1cc2cccc(Cl)c2nc1N(Cc1ccc(OC(F)(F)F)cc1)S(=O)(=O)c1ccc(C(=O)O)cc1 [Example 133] | 4.3 nM
10 | Cc1c(N(Cc2ccc3ccccc3c2)S(=O)(=O)c2ccc(C(=O)O)cc2)ncc2ccccc12 [Example 32] | 8.6 nM
11 | O=C(O)c1ccc(S(=O)(=O)N(Cc2ccc(OC(F)(F)F)cc2)c2cc3c(C4CC4)cccc3cn2)cc1 [Example 217] | 239 nM
12 | O=C(O)c1ccc(S(=O)(=O)N(Cc2ccc(OC(F)(F)F)cc2)c2nc(C3CC3)c3ccccc3c2C2CC2)cc1 [Example 232] | 10 nM
13 | Cc1c(N(Cc2ccc(C(C)(O)C(F)(F)C(F)(F)F)cc2)S(=O)(=O)c2ccc(C(=O)O)cc2)ncc2ccccc12 (stereo not shown) [Example 174] | 35 nM
14 | Cc1c(N(Cc2ccc(C(F)(F)F)cn2)S(=O)(=O)c2ccc(C(=O)O)cc2)ncc2ccccc12 [Example 66] | 38 nM
15 | Cc1c(N(Cc2ccc(C(F)(F)C3(C)CC3)cc2)S(=O)(=O)c2ccc(C(=O)O)cc2)ncc2ccccc12 [Example 209] | 1 nM
16 | Cc1c(N(Cc2ccc(C(F)(F)C3CC3)c(Cl)c2)S(=O)(=O)c2ccc(C(=O)O)cc2)ncc2ccccc12 [Example 201] | 0.6 nM
17 | Cc1c(N(Cc2ccc(C(F)(F)C3CC3)cc2)S(=O)(=O)c2ccc(C(=O)O)cc2)ncc2ccccc12 [Example 191] | 4.6 nM
18 | Cn1ccc2c(N(Cc3ccc(OC(F)(F)F)cc3)S(=O)(=O)c3ccc(C(=O)O)cc3)ncc(Cl)c21 [Example 211] | 987 nM
19 | Cc1c(N(Cc2ccc3c(c2)CCC3(C)C)S(=O)(=O)c2ccc(C(=O)O)cc2)ncc2ccccc12 [Example 61] | 1.3 nM
20 | Cc1c(N(Cc2ccc(COC(F)(F)F)cc2)S(=O)(=O)c2ccc(C(=O)O)cc2)ncc2ccccc12 [Example 192] | 8.8 nM
21 | Cc1c(N(Cc2ccc(OC(F)(F)F)cc2)S(=O)(=O)c2ccc(C(=O)O)cc2)nc(C(F)(F)F)c2ccccc12 [Example 108, 4-({[4-methyl-1-(trifluoromethyl)isoquinolin-3-yl][4-(trifluoromethoxy)benzyl]amino}sulfonyl)benzoic acid] | 21 nM
22 | O=C(O)c1ccc(S(=O)(=O)N(Cc2ccc(OC(F)(F)F)cc2)c2ncc3ccccc3c2Br)cc1 [Example 154] | 2.3 nM
23 | Cc1c(N(Cc2ccc3cn[nH]c3c2)S(=O)(=O)c2ccc(C(=O)O)cc2)ncc2ccccc12 [Example 178] | 601 nM
24 | COC(C)(c1ccc(CN(c2ncc3ccccc3c2C)S(=O)(=O)c2ccc(C(=O)O)cc2)cc1)C(F)(F)F (stereo not shown) [Example 96] | 4.7 nM
25 | Cc1c(N(Cc2cc3cccc(Cl)c3s2)S(=O)(=O)c2ccc(C(=O)O)cc2)ncc2ccccc12 [Example 199] | 3.9 nM
26 | Cc1c(N(Cc2ccc3[nH]cc(Cl)c3c2)S(=O)(=O)c2ccc(C(=O)O)cc2)ncc2ccccc12 [Example 236] | 522 nM
27 | Cc1c(N(Cc2ccc3c(Cl)c[nH]c3c2)S(=O)(=O)c2ccc(C(=O)O)cc2)ncc2ccccc12 [Example 121, 4-{[[(3-chloro-1H-indol-6-yl)methyl](4-methylisoquinolin-3-yl)amino]sulfonyl}benzoic acid] | 15 nM
28 | Cc1cc2ccccc2nc1N(Cc1cccc(C(F)(F)C2CC2)c1)S(=O)(=O)c1ccc(C(=O)O)cc1 [Example 206] | 21 nM

Row | Structure (SMILES) | IC50
29 | Cc1c(N(Cc2sc3ccccc3c2Cl)S(=O)(=O)c2ccc(C(=O)O)cc2)ncc2ccccc12 [Example 197] | 4.6 nM
30 | Cc1c(N(Cc2ccc(OC(F)(F)F)cc2)S(=O)(=O)c2ccc(C(=O)O)cc2)nc(C2CC2)c2c(C)cccc12 [Example 215] | 8.2 nM
31 | Cc1c(N(Cc2cc3cc(F)cc(F)c3s2)S(=O)(=O)c2ccc(C(=O)O)cc2)ncc2ccccc12 [Example 195] | 6 nM
32 | Cc1c(N(Cc2ccc3cc[nH]c3c2)S(=O)(=O)c2ccc(C(=O)O)cc2)ncc2ccccc12 [Example 117, 4-{[(1H-indol-6-ylmethyl)(4-methylisoquinolin-3-yl)amino]sulfonyl}benzoic acid] | 54 nM
33 | Cc1c(N(Cc2ccc(CC3CC3)c(F)c2)S(=O)(=O)c2ccc(C(=O)O)cc2)ncc2ccccc12 [Example 170] | 2.9 nM
34 | Cc1c(N(Cc2ccc(CC3CC3)cc2F)S(=O)(=O)c2ccc(C(=O)O)cc2)ncc2ccccc12 [Example 171] | 7.1 nM
35 | CCOC(C)(c1ccc(CN(c2ncc3ccccc3c2C)S(=O)(=O)c2ccc(C(=O)O)cc2)cc1F)C(F)(F)F (stereo not shown) [Example 220] | 5 nM
36 | Cc1c(N(C2CCc3cc(OC(F)(F)F)ccc32)S(=O)(=O)c2ccc(C(=O)O)cc2)ncc2ccccc12 (stereo not shown) [Example 179] | 2.1 nM
37 | Cc1c(N(Cc2ccc(OC(F)(F)F)cc2)S(=O)(=O)c2ccc(C(=O)O)cc2)nc(N2CCCC2)c2ccccc12 [Example 99, 4-({(4-methyl-1-pyrrolidin-1-ylisoquinolin-3-yl)[4-(trifluoromethoxy)benzyl]amino}sulfonyl)benzoic acid] | 29 nM
38 | Cc1c(N(Cc2ccc(CC3(C(F)(F)F)CC3)cc2)S(=O)(=O)c2ccc(C(=O)O)cc2)ncc2ccccc12 [Example 193] | 3.9 nM
39 | Cc1c(N(Cc2ccc(OC(F)(F)F)cc2)S(=O)(=O)c2ccc(C(=O)O)cc2)ncc2cccc(Cl)c12 [Example 230] | 44 nM
40 | Cc1c(N(Cc2ccc(Oc3ccccc3)cc2)S(=O)(=O)c2ccc(C(=O)O)cc2)ncc2ccccc12 [Example 28] | 16 nM
41 | CC(O)c1c(N(Cc2ccc(OC(F)(F)F)cc2)S(=O)(=O)c2ccc(C(=O)O)cc2)ncc2ccccc12 (stereo not shown) [Example 113, 4-({[4-(1-hydroxyethyl)isoquinolin-3-yl][4-(trifluoromethoxy)benzyl]amino}sulfonyl)benzoic acid] | 25 nM
42 | Cc1c(N(Cc2ccc(OC(F)(F)F)cc2)S(=O)(=O)c2ccc(C(=O)O)cc2)nc(Br)c2ccccc12 [Example 129] | 15 nM
43 | Cc1c(N(Cc2ccccc2)S(=O)(=O)c2ccc(C(=O)O)cc2)nc(C2CC2)c2ccccc12 [Example 139] | 12 nM
44 | Cc1c(N(Cc2ccc(OC(F)(F)F)cc2)S(=O)(=O)c2ccc(C(C)(C)O)cc2)ncc2ccccc12 [Example 125, 4-(1-hydroxy-1-methylethyl)-N-(4-methylisoquinolin-3-yl)-N-[4-(trifluoromethoxy)benzyl]benzenesulfonamide] | 62 nM
45 | Cc1c(N(Cc2ccc3c(c2)OC(C)(C)C3)S(=O)(=O)c2ccc(C(=O)O)cc2)ncc2ccccc12 [Example 81] | 58 nM
46 | Cc1c(N(Cc2ccc(-c3ccc(F)cc3)cc2)S(=O)(=O)c2ccc(C(=O)O)cc2)ncc2ccccc12 [Example 8, 4-{[[(4′-fluorobiphenyl-4-yl)methyl](4-methylisoquinolin-3-yl)amino]sulfonyl}benzoic acid] | 26 nM
47 | Cc1c(N(Cc2nc3ccccc3o2)S(=O)(=O)c2ccc(C(=O)O)cc2)ncc2ccccc12 [Example 127] | 195 nM
48 | Cc1c(N(Cc2ccc(OC(F)(F)F)cc2)S(=O)(=O)c2ccc(C(=O)O)cc2)nc(C2CCCC2)c2ccccc12 [Example 226] | 9.2 nM
49 | COC(C)(c1ccc(CN(c2ncc3ccccc3c2C)S(=O)(=O)c2ccc(C(=O)O)cc2)cc1F)C(F)(F)F (stereo not shown) [Example 219] | 2.6 nM
50 | Cc1c(N(Cc2ccc3ccn(C)c3c2)S(=O)(=O)c2ccc(C(=O)O)cc2)ncc2ccccc12 [Example 119, 4-{[[(1-methyl-1H-indol-6-yl)methyl](4-methylisoquinolin-3-yl)amino]sulfonyl}benzoic acid] | 92 nM
51 | Cc1c(N(Cc2ccc(C(F)(F)C3CC3)c(F)c2)S(=O)(=O)c2ccc(C(=O)O)cc2)ncc2ccccc12 [Example 203] | 1.5 nM
52 | COCc1nc(N(Cc2ccc(OC(F)(F)F)cc2)S(=O)(=O)c2ccc(C(=O)O)cc2)c(C)c2ccccc12 [Example 218] | 21 nM
53 | Cc1cc2cc(F)ccc2nc1N(Cc1ccc(OC(F)(F)F)cc1)S(=O)(=O)c1ccc(C(=O)O)cc1 [Example 145] | 91 nM
54 | Cc1c(N(Cc2ccc(OC(F)(F)F)cc2)S(=O)(=O)c2ccc(C(=O)O)cc2)nc(OC(C)C)c2ccccc12 [Example 100, 4-({(1-isopropoxy-4-methylisoquinolin-3-yl)[4-(trifluoromethoxy)benzyl]amino}sulfonyl)benzoic acid] | 21 nM
55 | Cc1nc2cc(CN(c3ncc4ccccc4c3C)S(=O)(=O)c3ccc(C(=O)O)cc3)ccc2s1 [Example 188] | 155 nM
